Measured values taken from patent US20230357248A1, “PYRROLOPYRIMIDINE COMPOUND AS BTK INHIBITOR AND USE THEREOF” (MEDSHINE DISCOVERY INC., priority 2019, published 2023).
Marks after values point to notes of the source that are not given here.

Tests used:
[1] = test system: xenograft tumor of human diffuse large B lymphoma TMD8; assay: Xenograft tumor model of TMD8 in SCID mouse; type: in vivo
Protocol: Xenograft tumor model of TMD8 in SCID mouse:
Assay method: A tumor model of subcutaneously transplanted human diffuse large B lymphoma in mice was established. Tumor cells in logarithmic growth phase were collected, counted, and then resuspended in RPMI1640. The cell suspension was adjusted to a concentration of 4×10^7/mL, and mixed well with Matrigel (1:1). Tumor cells were inoculated subcutaneously on the right back of the mouse with a 1 mL syringe ([…]), 4×10^6 cells/mouse. When the animal tumor reached about 100-300 mm^3, the tumor-bearing mice were randomly divided into 6 groups according to the size of the tumor volume, with 6 mice in each group. On the day of the assay, the animals were administered the corresponding drugs according to the corresponding groups. The first group G1 was set as a negative control group, which was administered 10% NMP/60% PEG400/30% H2O by gavage alone. The second group G2 was set as a positive control group, which was given reference example 1 (compound 005-1) at a dose of 30 mg/kg. The third group G3 was given compound 4 at a dose of 30 mg/kg, once a day, for a total of 15 days.
During the assay, animal weight and tumor size were measured 3 times a week, and clinical symptoms of animals were observed and recorded every day. Each dosing was referenced to the most recent animal weight.
For tumor measurement, length (a) and width (b) were measured with digital vernier calipers, and the calculation formula for tumor volume (TV) was: TV=a×b^2/2.

rat plasma protein = assay: In vivo plasma protein binding (PPB) assay in rat; type: in vitro ADME; conditions: rat in vivo plasma samples; dialysis 4 h 37° C.; average of 3 or 4 results
Protocol: 1.1 Preparation of Dialysis Membrane and Matrix
On the day of the assay, frozen plasma was thawed in running cold tap water. After the plasma was completely thawed, the plasma was centrifuged at 3220×g for 5 min, and suspensions and sediments in the plasma were removed.
A double-layer dialysis membrane was soaked in ultrapure water for about 1 h, and then taken out. The double-layer dialysis membrane was divided into two parts, and then soaked in ethanol-water (20:80, v:v) solution for 20 min or placed at 2-8° C. with a validity period of 1 month. Before the start of the assay, the dialysis membrane was rinsed twice with ultrapure water and soaked in ultrapure water for another 20 min for use.
1.2 The Mixing Steps of Compound Sample and the Dilution Process of Control Compound
1.2.1 The Mixing Steps of Compound Sample
An appropriate amount of original samples were transferred to a collection tube of mixed samples, and the samples in the collection tube of mixed samples were mixed thoroughly.
1.2.2 The Dilution Process of the Control Compound
The control compound was dissolved in dimethyl sulfoxide to obtain a 10 mM stock solution. A working solution of 400 μM was obtained by dilution with dimethyl sulfoxide. Preparation process of plasma sample: 995 μL of blank plasma was weighed, and 5 μL of warfarin working solution was added. […]

[2] = TMD8 xenograft in SCID mouse, 30 mg/kg PO, QD × 15, 14th day

For `CO[C@@H]1C[C@@H](CO)OC[C@@H]1Nc1ncnc2[nH]cc(C(=O)c3ccc(Oc4ccccc4)cc3Cl)c12` [Compound 4], the “inhibitory effect on xenograft tumor of human diffuse large B lymphoma TMD8 in mouse (in words)” value ([1]; 30 mg/kg once a day) was “a certain inhibitory effect”, the “relative tumor proliferation rate T/C” value ([1]; 5th day, 30 mg/kg once a day) was 66.33% and the “relative tumor proliferation rate” value ([1]; 14th day, 30 mg/kg once a day) was 21.53%. For the same compound, the “tumor volume inhibition rate TGI (%)” value ([1]; 14th day, 30 mg/kg once a day) was 79.04%, the “Tumor volume inhibition rate TGI” value [1, 2] was 79.04% and the “relative tumor proliferation rate T/C” value [1, 2] was 21.53%. The “Unbound PPB” value (rat plasma protein) was 0.2% ^a.
